The test system of series [1] is HCT-116 cells. Put plainly: Mitotic index analysis, pH3 expression in HCT-116 cells. It counts as cell-based. As to conditions: Homo sapiens, 24 h treatment. The essentials:
(§1)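 HCT-116 or HT-29 cells treated 24 h with 9-point 3-fold dilutions from 10 μM, then fixed and immunostained for phospho-histone H3 with DRAQ5 counterstain. Near-infrared fluorescence read at 700/800 nm; pH3 expressed as % of DMSO control and EC50 fitted.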

The next series deals with KIF18A (Homo sapiens (Human), UniProt Q8NI77). Put plainly: KIF18A enzymatic activity inhibition, ADP-Glo kit. It is filed as biochemical. To be noted: 4 nM KIF18A, 30 μM ATP. On the procedure: In this experiment, an ADP-Glo kit was used to detect the inhibitory activity of the compounds against KIF18A. Each compound was prepared into a 10 mM stock solution with DMSO, which was then diluted at 1:5 to obtain 9 gradients with the initial final concentration set at 10 μM. Meanwhile, a control group and a blank group were also set up. The reaction buffer consisted of 15 mM Tris (pH 7.5), 10 mM MgCl2, and 0.01% Pluronic F-68. 4 nM KIF18A (1467) and the test compound were added to a 384-well plate and incubated at 37° C. for 20 mm. Then, 30 μM ATP was added to initiate the enzymatic reaction, and the plate was incubated at room temperature for 15 min. Finally, the ADP-Glo reagent was added to detect the luminescence intensity, where the luminescence intensity is directly proportional to the ADP content. Inhibition rate (%)=[…]. Sample signal is the value of the compound group, and DMSO signal is the value of the DMSO control group. Then, the inhibition rate at each concentration was calculated, and the IC50 was determined by fitting using the GraphPadPrism 7.0 software.
Sequence of KIF18A (Q8NI77 1-467): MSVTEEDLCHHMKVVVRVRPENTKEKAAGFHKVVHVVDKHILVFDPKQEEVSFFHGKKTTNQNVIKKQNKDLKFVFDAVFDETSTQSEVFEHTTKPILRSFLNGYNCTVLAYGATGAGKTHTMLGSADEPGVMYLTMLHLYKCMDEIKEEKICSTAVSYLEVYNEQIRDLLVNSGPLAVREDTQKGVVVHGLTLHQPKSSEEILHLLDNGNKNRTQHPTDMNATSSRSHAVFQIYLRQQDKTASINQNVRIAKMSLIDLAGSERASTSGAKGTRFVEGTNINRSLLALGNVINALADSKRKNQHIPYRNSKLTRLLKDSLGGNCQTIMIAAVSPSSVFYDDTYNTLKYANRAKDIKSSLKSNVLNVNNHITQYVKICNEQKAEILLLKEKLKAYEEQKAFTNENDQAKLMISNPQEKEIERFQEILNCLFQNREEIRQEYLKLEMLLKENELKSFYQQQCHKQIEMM
For orientation: ADP-Glo first removes unused ATP, then detects ADP through luciferase.

For the next series, the system named is OVCAR3 cells. Put plainly: Detection of OVCAR3 cell proliferation activity by CTG method. It is filed as cell-based. As to conditions: Homo sapiens, OVCAR-3, 168 h, CellTiter-Glo, 7 days. The essentials:
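OVCAR3 cells (2000/well) were exposed for 7 days to compound at 10 μM to 0.026 nM, 5-fold steps, in duplicate. Viability was read as CellTiter-Glo luminescence. A plate read on the day of compound addition served as the Max value for IC50 derivation.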

The subject of series [2] is HT-29 cells. The series can be described thus: Detection of cell proliferation activity by CCK8 method (HT-29). It counts as cell-based, human. As to conditions: Homo sapiens, CCK8, 96 h. Summed up:
(§2)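 Cells seeded at 1500/well (BT-549, 1640 medium) or 2000/well (HT-29, HCT-116, McCoy's 5A), treated next day with 9-point 1:5 dilutions from 10 μM final, triplicate, for 96 h. CCK8 read at 450 nm after 2 h at 37 °C; inhibition versus DMSO, IC50 by non-linear regression.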

In series [3] the test system is HT-29 cells. The series can be described thus: Mitotic index analysis, pH3 expression in HT-29 cells. It is filed as cell-based, human. To be noted: Homo sapiens, 24 h treatment. Summed up: as §1
Series [4] relates to HCT-116 cells. The series can be described thus: Detection of cell proliferation activity by CCK8 method (HCT-116). It is filed as cell-based. As to conditions: Homo sapiens, CCK8, 96 h. Summed up: as §2
For orientation: Tetrazolium assays rely on reduction of a dye to a coloured formazan, in cell work by metabolically active cells.

A short description of series [5]: Pharmacokinetic test in rats. To be noted: SD rats, PO @5mpk. It is filed as in vivo. On the procedure:
In this example, the pharmacokinetic behavior of the compounds after intravenous injection (IV) and intragastric (PO) administration in SD rats was tested.
On the day of administration, rats were weighed for actual body weight and the administration volume was calculated. Each compound was tested in two groups with 3 rats in each group; one group was subjected to administration by single intravenous injection, and the other group was subjected to single intragastric administration. Whole blood samples were collected via the jugular vein at prescribed time points (0.25 h, 0.5 h, 1 h, 2 h, 4 h, 8 h, and 24 h after administration). After blood sample collection, the samples were immediately transferred to labeled commercial sample tubes containing K2-EDTA (0.85-1.15 mg), followed by centrifugation (3200×g, 4° C., 10 min) and plasma collection. The plasma was transferred to a pre-cooled centrifuge tube, frozen in dry ice, and then stored in an ultra-low temperature freezer at −60° C. or lower until the LC-MS/MS analysis.
Plasma concentrations were determined by the LC-MS/MS method. Plasma drug concentration data for the compounds were processed using a non-compartmental model in the WinNonlin Version 6.3 (Pharsight, Mountain View, CA) pharmacokinetic software. The relevant pharmacokinetic parameters were calculated by a linear-log trapezoidal method.

The subject of another series is BT-549 cells. The series can be described thus: Detection of cell proliferation activity by CCK8 method (BT-549). It counts as cell-based. As to conditions: Homo sapiens, CCK8, 96 h. The essentials:
as §2

Experimental findings from patent US20250382298A1, “NITROGEN-CONTAINING COMPOUND AND USE THEREOF” (SUZHOU GENHOUSE BIO CO., LTD., priority 2022, published 2025) are described below.

A word on the EC50: it is the concentration at which the effect is half-maximal. As a reminder, the IC50 is the concentration that gives 50% inhibition. Low readings indicate inhibition by little substance, high ones a need for much substance. By AUC is commonly meant the area under the concentration-time curve, a measure of exposure. Usually Cmax stands for the highest concentration seen after dosing.

On to `O=C(Nc1cn2ccnc2c(N2CCCCC2)n1)c1ccc(NS(=O)(=O)CCO)cc1N1CCC2(CC1)CC2` [Compound 12], for which the EC50 in the series with HCT-116 cells [1] is > 10 µM; in the series with HT-29 cells [3], 51 nM. The IC50 is 10.2 nM against KIF18A; 15 nM in the series on OVCAR3 cells; 73 nM in the series with HT-29 cells [2]; > 10 µM in the series with HCT-116 cells [4]; 34 nM in the series with BT-549 cells. The F in series [5] was found to be 18.3%. Moreover, the AUC in series [5] (rat, plasma, 5 mg/kg) was 2.41 µM·h. This compound also displayed a Cmax in series [5] (rat, plasma, 5 mg/kg) of 526 nM. In addition, in series [5] (rat, plasma, 5 mg/kg, read-out: t½ (converted)), the half-life was 156 min.
